According to US20120135451A1, “Method and Apparatus for Evaluation of Toxicity” (BIOPHOS SA, priority 2009, published 2012):
Read-outs that look alike come from different tables or passages of the source.

Tested on: boar spermatozoa
Test: Toxicity evaluation by motility of boar spermatozoa (Qualisperm)
Format: cell-based
Details: 30 minutes incubation, around 60 million/ml boar spermatozoa
Procedure: Quadruple samples of each test compound were prepared in varying concentrations by serial dilution in a 96 microwell-plate by serial dilution into XCell with DMSO. Equal volumes (50 μl) of boar spermatozoa in a concentration of around 60 million/ml were added to all sample solutions. Subsequently, the microwell plate was shaken and incubated for 30 minutes. The dosing was performed by using an automated TECAN® robot. After the incubation the sample solutions were pipetted on a Leja® slide and the motility of the spermatozoa was analysed using a Qualisperm® apparatus from Biophos AG. A dose response curve was obtained where % motile spermatozoa (all the moving spermatozoa), % progressive spermatozoa (share of spermatozoa above a pre-determined threshold, here: above 25 μm/sec), or mean speed of total motile spermatozoa was plotted as a function of the logarithmic concentration of the test compound expressed in mM. From the dose curve IC50 values were calculated.

Row | Structure (SMILES) | IC50 (% motile spermatozoa (all moving spermatozoa), read-out: IC50 % motille) [µM] | IC50 (% progressive spermatozoa (above 25 μm/sec), read-out: IC50 % progressiv) [µM] | IC50 (mean speed of total motile spermatozoa, read-out: IC50 mean speed) [µM] | IC50 (0.5 h, % motile spermatozoa (all moving spermatozoa), read-out: IC50 % motille) [µM] | IC50 (0.5 h, % progressive spermatozoa (above 25 μm/sec), read-out: IC50 % progressiv) [µM] | IC50 (0.5 h, mean speed of total motile spermatozoa, read-out: IC50 mean speed) [µM]
1 | CC(=O)N1CCN(c2ccc(OCC3COC(Cn4ccnc4)(c4ccc(Cl)cc4Cl)O3)cc2)CC1 (stereo not drawn) [Ketokonazole, Ketoconazole] | 209 | 205 | 197 | – | – | –
2 | CC(C)C(=O)Nc1ccc([N+](=O)[O-])c(C(F)(F)F)c1 [Flutamide] | – | – | – | 95 | 62 | 72
